Read-outs that look alike come from different tables or passages of the source.
Experiments:
[1] = test system: HCT-116 human colorectal carcinoma cells; test: Cell-proliferation assay using Alamar Blue dye; assay type: cell-based; settings: Homo sapiens;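 note: cells exposed to compound for about 4 days, then Alamar Blue added and dye fluorescence read after about 4 h, compared with medium-only control wells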
recombinant human PIM1 = recombinant human PIM1 (Homo sapiens (Human), UniProt P11309); test: PIM-1 kinase activity in cell-free in vitro assay; assay type: biochemical; settings: for inhibition at 0.5 µM: 500 nM compound, read-out: PIM-1: % inh 500 nM
K-562 [2] = test: Cell proliferation modulatory activity, K-562; assay type: cell-based; settings: Homo sapiens, K562
MV-4-11 [3] = test: Cell proliferation modulatory activity, MV-4-11; assay type: cell-based; settings: Homo sapiens, MV4-11
recombinant human CK2 = recombinant human CK2 (Homo sapiens (Human), UniProt P68400); test: CK2 assay (cell-free, 33P-ATP filter plate); assay type: biochemical; settings: cell-free; for inhibition at 0.5 µM: 500 nM compound, read-out: CK2: % inh 500 nM
Flt3 = Flt3 (Homo sapiens (Human), UniProt P36888); test: FLT-3 kinase activity in cell free in vitro assay; assay type: biochemical; settings: cell-free; read-out: FLT-3
[4] = test system: MiaPaca human pancreatic carcinoma cells; test: Cell-proliferation assay using Alamar Blue dye; assay type: cell-based; settings: MIA PaCa-2, Table 45
Description: A representative cell-proliferation assay protocol using Alamar Blue dye (stored at 4° C., use 20 ul per well) is described hereafter.
• a. Split and trypsinize cells. • b. Count cells using hemocytometer. • c. Plate 4,000-5,000 cells per well in 100 μl of medium and seed into a 96-well plate according to the following plate layout. Add cell culture medium only to wells B10 to B12. Wells B1 to B9 have cells but no compound added.
• d. Add 100 μl of 2× drug dilution to each well in a concentration shown in the plate layout above. At the same time, add 100 μl of media into the control wells (wells B10 to B12). Total volume is 200 μl/well. • e. Incubate four (4) days at 37° C., 5% CO2 in a humidified incubator. • f. Add 20 μl Alamar Blue reagent to each well. • g. Incubate for four (4) hours at 37° C., 5% CO2 in a humidified incubator. • h. Record fluorescence at an excitation wavelength of 544 nm and emission wavelength of 590 nm using a microplate reader.
In the assays, cells are cultured with a test compound for approximately four days, the dye then is added to the cells and fluorescence of […] dye is detected after approximately four hours. Different types of cells can be utilized in the assays (e.g., HCT-116 human colorectal carcinoma cells, PC-3 human prostatic cancer cells and MiaPaca human pancreatic carcinoma cells). Anti-proliferative effects of representative compounds are provided hereafter

K-562 [5] = test: Cell proliferation modulatory activity, K-562; assay type: cell-based; settings: Homo sapiens, K562; Table 45; read-out: K-562 IC50
MV-4-11 [6] = test: Cell proliferation modulatory activity, MV-4-11; assay type: cell-based; settings: Homo sapiens, MV4-11; Table 45; read-out: MV-4-11 IC50
PIM2 = PIM2 (Homo sapiens (Human), UniProt Q9P1W9); test: PIM2 IC50; assay type: biochemical; settings: Table 45
phosphoBAD ser 112 = phosphoBAD ser 112 IC50; assay type: cell-based; settings: read-out: phosphoBAD ser 112 IC50; Table 45
[7] = HCT-116, read-out: HCT-116 (uM), cell proliferation modulatory activity, HCT-116, first column
[8] = HCT-116, HCT-116, second column, read-out: HCT-116 (uM), cell proliferation modulatory activity
[9] = HCT-116, read-out: HCT-116 (uM), cell proliferation modulatory activity, HCT-116, second column

recombinant human CK2, sequence (P68400 whole entry): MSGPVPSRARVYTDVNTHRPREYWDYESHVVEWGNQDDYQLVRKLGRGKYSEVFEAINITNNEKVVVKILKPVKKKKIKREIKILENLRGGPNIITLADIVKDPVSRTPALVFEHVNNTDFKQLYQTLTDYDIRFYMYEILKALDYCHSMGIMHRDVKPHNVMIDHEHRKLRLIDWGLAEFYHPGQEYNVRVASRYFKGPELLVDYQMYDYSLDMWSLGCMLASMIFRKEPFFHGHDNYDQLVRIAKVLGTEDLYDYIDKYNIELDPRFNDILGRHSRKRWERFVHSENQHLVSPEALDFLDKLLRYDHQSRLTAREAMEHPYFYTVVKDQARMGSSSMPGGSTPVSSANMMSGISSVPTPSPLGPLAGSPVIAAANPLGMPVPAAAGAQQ
recombinant human CK2, sequence (P67870 whole entry partner): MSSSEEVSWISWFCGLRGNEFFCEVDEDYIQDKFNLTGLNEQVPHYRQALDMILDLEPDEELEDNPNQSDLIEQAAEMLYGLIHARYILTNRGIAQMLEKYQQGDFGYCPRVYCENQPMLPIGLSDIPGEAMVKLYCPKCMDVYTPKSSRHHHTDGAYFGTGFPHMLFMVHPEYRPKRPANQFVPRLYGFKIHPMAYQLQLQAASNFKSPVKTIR
recombinant human PIM1, sequence (P11309 whole entry): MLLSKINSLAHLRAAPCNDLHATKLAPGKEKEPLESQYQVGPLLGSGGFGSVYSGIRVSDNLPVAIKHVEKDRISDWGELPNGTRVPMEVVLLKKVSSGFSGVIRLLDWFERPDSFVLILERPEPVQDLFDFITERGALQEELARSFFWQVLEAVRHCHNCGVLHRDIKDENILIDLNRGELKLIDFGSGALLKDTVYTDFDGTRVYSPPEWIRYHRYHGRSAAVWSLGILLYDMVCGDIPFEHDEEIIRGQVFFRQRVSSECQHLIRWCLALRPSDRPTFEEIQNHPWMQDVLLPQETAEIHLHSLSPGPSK
Flt3, sequence (P36888 27-993): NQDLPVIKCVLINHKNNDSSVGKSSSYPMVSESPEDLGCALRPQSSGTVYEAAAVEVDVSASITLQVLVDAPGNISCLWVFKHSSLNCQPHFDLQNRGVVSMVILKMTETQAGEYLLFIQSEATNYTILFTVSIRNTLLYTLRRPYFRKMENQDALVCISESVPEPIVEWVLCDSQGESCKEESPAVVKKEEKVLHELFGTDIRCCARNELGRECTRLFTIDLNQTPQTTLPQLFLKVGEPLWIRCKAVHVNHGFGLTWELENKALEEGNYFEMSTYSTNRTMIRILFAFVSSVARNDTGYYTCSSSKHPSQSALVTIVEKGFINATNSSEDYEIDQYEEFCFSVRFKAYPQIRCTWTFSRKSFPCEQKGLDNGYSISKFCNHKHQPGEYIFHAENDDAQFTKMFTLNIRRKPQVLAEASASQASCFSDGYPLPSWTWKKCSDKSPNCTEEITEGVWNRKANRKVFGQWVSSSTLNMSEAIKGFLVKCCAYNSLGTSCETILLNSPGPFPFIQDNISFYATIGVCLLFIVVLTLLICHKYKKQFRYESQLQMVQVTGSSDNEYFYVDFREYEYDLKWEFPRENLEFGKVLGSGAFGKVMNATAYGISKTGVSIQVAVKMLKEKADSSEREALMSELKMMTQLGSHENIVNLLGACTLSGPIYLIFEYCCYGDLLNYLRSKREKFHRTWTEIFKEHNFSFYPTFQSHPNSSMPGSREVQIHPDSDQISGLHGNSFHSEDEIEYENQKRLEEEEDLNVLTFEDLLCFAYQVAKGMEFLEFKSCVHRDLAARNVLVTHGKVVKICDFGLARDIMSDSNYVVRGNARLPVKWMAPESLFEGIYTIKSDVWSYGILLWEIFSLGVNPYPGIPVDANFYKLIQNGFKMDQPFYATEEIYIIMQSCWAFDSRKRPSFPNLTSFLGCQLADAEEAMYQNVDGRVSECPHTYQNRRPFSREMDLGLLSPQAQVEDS
PIM2, sequence (Q9P1W9 whole entry): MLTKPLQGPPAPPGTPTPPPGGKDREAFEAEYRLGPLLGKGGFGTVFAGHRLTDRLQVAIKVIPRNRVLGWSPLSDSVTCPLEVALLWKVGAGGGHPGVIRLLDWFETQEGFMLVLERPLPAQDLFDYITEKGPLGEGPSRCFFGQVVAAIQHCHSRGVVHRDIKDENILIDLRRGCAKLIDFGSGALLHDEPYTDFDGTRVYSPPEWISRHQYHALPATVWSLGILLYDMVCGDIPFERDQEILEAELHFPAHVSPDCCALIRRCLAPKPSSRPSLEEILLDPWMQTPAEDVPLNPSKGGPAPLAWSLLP

Structure (SMILES)	inhibition at 0.5 µM (recombinant human PIM1; cell-free)	IC50 (K-562 [2])	IC50 (MV-4-11 [3])	IC50 (recombinant human PIM1; cell-free)	IC50 [1, 9]	also measured
CN(C)CCNc1nc2cc(C(=O)O)ccc2c2sccc12	83.4%	> 10 µM	> 10 µM			IC50 [1, 7]: 10 µM
O=C(O)c1ccc2c(c1)nc(NCCN1CCCC1)c1ccsc12	67.2%	> 10 µM	> 10 µM	244 nM		IC50 [1, 7]: 10 µM
c1ccc(Nc2nc3cc(-c4nnn[nH]4)ccc3c3sccc23)cc1	70.9%	> 10 µM	1.09 µM	262 nM		IC50 [1, 7]: 10 µM
CN(c1ccccc1)c1nc2cc(C(=O)O)ccc2c2sccc12	61.4%	> 10 µM	> 10 µM	404 nM		IC50 [1, 7]: 10 µM
O=C(O)c1ccc2c(c1)nc(Nc1ccc(F)c(Cl)c1)c1ccsc12	80.8%	> 10 µM	0.455 µM	257 nM		IC50 [1, 7]: 10 µM
O=C(O)c1ccc2c(c1)nc(Nc1ccc(Cl)cc1)c1ccsc12	69.1%	> 10 µM	0.258 µM	289 nM		IC50 [1, 7]: 10 µM
Fc1ccc(Nc2nc3cc(-c4nnn[nH]4)ccc3c3sccc23)cc1	74.3%	> 10 µM	4.53 µM	174 nM		IC50 [1, 7]: 10 µM
FC(F)(F)c1cccc(Nc2nc3cc(-c4nnn[nH]4)ccc3c3sccc23)c1	59%	> 10 µM	0.093 µM	205 nM		IC50 (recombinant human CK2; 15 um ATP, read-out: CK2 (15 um ATP) IC50): 458 nM; IC50 (recombinant human CK2; 20 um ATP, read-out: CK2 (20 um ATP) IC50): 406 nM; IC50 [1, 8]: > 10 µM; IC50 (Flt3): > 400 nM
NS(=O)(=O)c1cccc(Nc2nc3cc(-c4nnn[nH]4)ccc3c3sccc23)c1	83.9%	> 10 µM	> 10 µM	88 nM	10 µM	
Brc1cccc(Nc2nc3cc(-c4nnn[nH]4)ccc3c3sccc23)c1	65.9%	> 10 µM	0.549 µM	220 nM	> 10 µM	
Fc1cccc(Nc2nc3cc(-c4nnn[nH]4)ccc3c3sccc23)c1	76.6%	> 10 µM	0.525 µM	138 nM		IC50 (Flt3): > 400 nM
CN(C)CCNC(=O)Cc1cccc(Nc2nc3cc(C(=O)O)ccc3c3sccc23)c1	69.2%	> 10 µM	> 10 µM	283 nM		inhibition at 0.5 µM (recombinant human CK2): 53.3%; IC50 [1, 8]: > 10 µM
CNS(=O)(=O)c1cccc(Nc2nc3cc(C(=O)O)ccc3c3sccc23)c1	82.8%	> 10 µM	> 10 µM	159 nM	> 10 µM	
O=C(O)c1ccc2c(c1)nc(Nc1cccc(C(F)(F)F)c1)c1ccsc12	74.7%	> 10 µM	> 10 µM	197 nM	> 10 µM	
O=C(O)c1ccc2c(c1)nc(Nc1ccc(F)c(F)c1)c1ccsc12	85.7%	> 10 µM	0.658 µM	239 nM	0.832 µM	
Clc1cccc(Nc2nc3cc(-c4nnn[nH]4)ccc3c3cnccc23)c1	48.6%	8.2 µM	0.032 µM	863 nM		IC50 (Flt3): 305 nM
O=C(O)c1ccc2c(c1)nc(Nc1cc(F)cc(Cl)c1)c1ccsc12	90%	> 10 µM	0.745 µM	299 nM	> 10 µM	
O=C(O)c1ccc2c(c1)nc(Nc1cc(F)cc(F)c1)c1ccncc12	92.4%	3.26 µM	> 10 µM	111 nM	4.33 µM	
N#Cc1cc(F)cc(Nc2nc3cc(C(=O)O)ccc3c3sccc23)c1	87%	> 10 µM	1.46 µM	252 nM	> 10 µM	
N#Cc1cccc(Nc2nc3cc(C(=O)O)ccc3c3cnccc23)c1	92.4%	9.15 µM	> 10 µM	58 nM		IC50 (Flt3): 12 nM
Fc1cc(F)cc(Nc2nc3cc(-c4nnn[nH]4)ccc3c3sccc23)c1	86.9%	> 10 µM	2.2 µM	414 nM	> 10 µM	
COC(=O)c1ccc2c(c1)nc(Nc1cccc(Cl)c1)c1ccncc12	7.83%	0.217 µM	0.161 µM			inhibition at 0.5 µM (recombinant human CK2): 13.4%; IC50 (Flt3): > 400 nM
Fc1ccc(Nc2nc3c(-c4nnc[nH]4)cccc3c3cnccc23)c(Cl)c1						IC50 [4]: > 10000 nM; IC50 (recombinant human PIM1; Table 45): < 100 nM; IC50 (K-562 [5]): < 500 nM; IC50 (MV-4-11 [6]): < 500 nM; IC50 (PIM2): < 100 nM; IC50 (phosphoBAD ser 112): < 500 nM
COc1ccc(Nc2nc3c(-c4nc[nH]n4)cccc3c3cnccc23)cc1						IC50 [4]: < 500 nM; IC50 (recombinant human PIM1; Table 45): < 100 nM; IC50 (K-562 [5]): < 500 nM; IC50 (MV-4-11 [6]): < 100 nM; IC50 (PIM2): < 100 nM; IC50 (phosphoBAD ser 112): < 100 nM
Fc1ccccc1Nc1nc2c(-c3nnc[nH]3)cccc2c2cnccc12						IC50 [4]: < 1000 nM; IC50 (recombinant human PIM1; Table 45): < 100 nM; IC50 (K-562 [5]): < 500 nM; IC50 (MV-4-11 [6]): < 100 nM; IC50 (PIM2): < 100 nM; IC50 (phosphoBAD ser 112): < 5000 nM
N#Cc1cccc(Nc2nc3c(-c4nc[nH]n4)cccc3c3cnccc23)c1						IC50 [4]: > 10000 nM; IC50 (recombinant human PIM1; Table 45): < 100 nM; IC50 (K-562 [5]): > 10000 nM; IC50 (MV-4-11 [6]): < 100 nM; IC50 (PIM2): > 1100 nM; IC50 (phosphoBAD ser 112): < 5000 nM
c1cc(-c2nc[nH]n2)c2nc(NCC3CC3)c3ccncc3c2c1						IC50 [4]: < 10000 nM; IC50 (recombinant human PIM1; Table 45): < 100 nM; IC50 (K-562 [5]): > 10000 nM; IC50 (MV-4-11 [6]): < 100 nM; IC50 (PIM2): < 500 nM; IC50 (phosphoBAD ser 112): < 100 nM
Fc1cccc(Nc2nc3c(-c4nnc[nH]4)cccc3c3cnccc23)c1						IC50 [4]: < 1000 nM; IC50 (recombinant human PIM1; Table 45): < 100 nM; IC50 (MV-4-11 [6]): < 500 nM; IC50 (phosphoBAD ser 112): < 500 nM

Source: patent US8168651B2, “Protein kinase modulators” (Cylene Pharmaceuticals, Inc., priority 2008, dated 2012)
